Reference: patent US9718817B2, “Aryl and heteroaryl ether compounds as ROR gamma modulators” (Glenmark Pharmaceuticals S.A., priority 2014, dated 2017)

Target: T1, GST-tagged ROR gamma ligand binding domain (LBD) (Homo sapiens, UniProt P51449)
T1 construct: purchased Invitrogen
T1 sequence (P51449 269-508 limits assumed): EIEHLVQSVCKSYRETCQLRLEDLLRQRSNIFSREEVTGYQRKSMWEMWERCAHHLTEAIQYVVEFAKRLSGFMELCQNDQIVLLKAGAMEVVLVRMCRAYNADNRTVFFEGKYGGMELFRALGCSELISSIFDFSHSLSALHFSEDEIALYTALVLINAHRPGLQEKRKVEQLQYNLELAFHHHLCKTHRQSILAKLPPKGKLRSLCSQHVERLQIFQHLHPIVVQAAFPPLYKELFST
Experiment: TR-FRET assay for ROR gamma (LanthaScreen co-activator peptide recruitment)
Assay type: biochemical
Details: for IC50: class symbols, from dose response curve; for inhibition at 1 µM: compound 1 μM; for inhibition at 1 µM / inhibition at 10 µM: TR-FRET ratio 520/495, percent of control; for inhibition at 10 µM: compound 10 μM
In short: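 Antagonist mode: 10 nM GST-RORγ LBD pre-incubated with compound 1 h at 22 °C in 25 mM HEPES pH 7.4, 100 mM NaCl, 5 mM DTT, 0.01% BSA, 4% DMSO final. Then 300 nM fluorescein-D22 co-activator peptide plus 10 nM Tb-anti-GST added, 1 h at room temperature. IC50 by nonlinear regression of the 520/495 TR-FRET ratio as percent of no-compound control.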

Row | SMILES | IC50 | inhibition at 1 µM | inhibition at 10 µM
1 | CCS(=O)(=O)c1ccc(CC(=O)Nc2ccc(OC3(c4nc5cc(Cl)ccc5n4C)CCC3)cc2)cc1 [Example 25, N-{4-[1-(5-Chloro-1-methyl-1H-benzoimidazol-2-yl)-cyclobutoxy]-phenyl}-2-(4-ethanesulfonyl-phenyl)-acetamide] | 50 to 100 nM | 85.3% | 94.2%
2 | CCS(=O)(=O)c1ccc(CC(=O)Nc2ccc(C#CC(C)(C)Oc3ccc(F)c(Cl)c3)cc2)cc1 [Example 68, N-{4-[3-(3-Chloro-4-fluoro-phenoxy)-3-methyl-but-1-yn-1-yl]-phenyl}-2-(4-ethanesulfonyl-phenyl)-acetamide] |  | 70.7% | 79.9%
3 | CCS(=O)(=O)c1ccc(CC(=O)Nc2ccc(C#CC(C)(C)Oc3c(F)cc(F)cc3F)cc2)cc1 [Example 73, 2-(4-Ethanesulfonyl-phenyl)-N-{4-[3-methyl-3-(2,4,6-trifluoro-phenoxy)-but-1-yn-1-yl]-phenyl}-acetamide] | < 50 nM | 75.4% | 78.6%
4 | CCn1c(C(C)(C)Oc2ccc(NC(=O)Cc3ccc(S(=O)(=O)CC)cc3)cc2)nc2cccc(Cl)c21 [Example 19, N-(4-{[2-(7-Chloro-1-ethyl-1H-benzimidazol-2-yl)propan-2-yl]oxy}phenyl)-2-[4-(ethylsulfonyl)phenyl]acetamide] | 50 to 100 nM | 85.5% | 88.9%
5 | CCS(=O)(=O)c1ccc(CC(=O)Nc2ccc(OC(C)(C)c3ccc(F)c(F)c3)cc2)cc1 [Example 1, N-(4-{[2-(3,4-Difluorophenyl)propan-2-yl]oxy}phenyl)-2-[4(ethylsulfonyl)phenyl]acetamide] |  | 47.7% | 74.3%
6 | CCS(=O)(=O)c1ccc(CC(=O)Nc2ccc(OC(C)(C)c3ccc(Cl)c(Cl)c3)nc2)cc1 [Example 59, N-{6-[1-(3,4-Dichloro-phenyl)-1-methyl-ethoxy]-pyridin-3-yl}-2-(4-ethanesulfonyl-phenyl)-acetamide] | < 50 nM | 71.8% | 86.7%
7 | CCS(=O)(=O)c1ccc(CC(=O)Nc2ccc(OC3(c4ccc(C(F)(F)F)c(F)c4)CCOCC3)cc2)cc1 [Example 41, 2-(4-Ethanesulfonyl-phenyl)-N-{4-[4-(3-fluoro-4-trifluoromethyl-phenyl)-tetrahydro-pyran-4-yloxy]-phenyl}-acetamide] | > 100 nM | 78% | 87.2%
8 | CCn1c(C2(Oc3ccc(NC(=O)Cc4ccc(S(=O)(=O)CC)cc4)cc3)CC2)nc2cc(Cl)ccc21 [Example 24, N-{4-[1-(5-Chloro-1-ethyl-1H-benzoimidazol-2-yl)-cyclopropoxy]-phenyl}-2-(4-ethanesulfonyl-phenyl)-acetamide] | > 100 nM | 65.7% | 85.6%
9 | CCS(=O)(=O)c1ccc(CC(=O)Nc2ccc(OC3(c4ccc(F)c(F)c4)CCC3)cc2)cc1 [Example 34, N-{4-[1-(3,4-Difluoro-phenyl)-cyclobutoxy]-phenyl}-2-(4-ethanesulfonyl-phenyl)-acetamide] | < 50 nM | 86.6% | 89.7%
10 | CCS(=O)(=O)c1ccc(CC(=O)Nc2cc(F)c(OC(C)(C)c3ncc(Cl)cc3Cl)c(F)c2)cc1 [Example 110, N-{4-[1-(3,5-Dichloro-pyridin-2-yl)-1-methyl-ethoxy]-3,5-difluoro-phenyl}-2-(4-ethanesulfonyl-phenyl)-acetamide] |  | 23.7% | 47.6%
11 | CCS(=O)(=O)c1ccc(CC(=O)Nc2ccc(OC3(c4ccc(Cl)cc4Cl)CC3)c(F)c2)cc1 [Example 138, N-(4-((1-(2,4-Dichlorophenyl)cyclopropyl)oxy)-3-fluorophenyl)-2-(4-(ethylsulfonyl)phenyl)acetamide] | < 50 nM | 86.8% | 83.6%
